Assay results as given in patent US10001483B2, “Methods for the treatment of Kaposi's sarcoma or KSHV-induced lymphoma using immunomodulatory compounds, and uses of biomarkers” (Celgene Corporation, priority 2015, dated 2018).
“Also recorded” adds a separate entry of the source. Marks after values point to notes of the source that are not given here.

Experiments:
[1] = test system: Kaposi sarcoma associated herpesvirus (KSHV/HHV8); experiment: KSHV viral load in PBMC by quantitative real-time PCR; format: in vivo
Procedure: (§1) Aspirin at 81 mg daily was administered as thromboprophylaxis. Assessments were performed every 4 weeks for lymphocyte numbers, Kaposi sarcoma associated herpesvirus (KSHV/HHV8) viral load (VL) and HIV VL and at 8 weeks for T cell subsets and activation by immunophenotyping of peripheral blood mononuclear cells (PBMC). KSHV VL in PBMC and HIV VL in plasma were assayed by quantitative PCR; an ultrasensitive single copy assay was used for HIV VL. Changes from baseline were evaluated using the Wilcoxon signed rank test with P<0.005 considered significant given multiple comparisons. Differences in changes between the HIV infected and uninfected groups were evaluated using the Wilcoxon rank sum test. Median time of the patients on therapy 7 cycles (range 2-12).
Laboratory Assays: Lymphocyte subsets were assessed by fluorescent-activated cell sorting using the BlueOcean platform (Beckman Coulter, Carlsbad, Calif.). Plasma HIV-1 […] was evaluated using an ultrasensitive assay whose sensitivity was 1 viral copy per plasma volume. Briefly, a triplex PCR was used using a modification of a previously reported assay with three primers: one spanning the start codon of gag, one in the gag coding region, and one internal control. Samples were tested from 6 mL plasma aliquots, with 12 replicants per sample. KSHV VL in peripheral blood mononuclear cells (PBMC) was assessed by quantitative real-time PCR.
Changes in immunologic and virologic parameters were evaluated by a Wilcoxon signed rank test. Exact Wilcoxon rank sum tests were used to compare pharmacokinetic parameters at each time point and differences from baseline. All p-values are two-tailed and reported without adjustment for multiple comparisons. HRQL was analyzed using a using a mixed model repeated measures analysis for FAHI and the marginal homogeneity test for KS-specific questions

Kaposi sarcoma = experiment: Clinical study of pomalidomide in Kaposi sarcoma patients with and without HIV: KS responses by modified ACTG criteria; format: in vivo, human
Procedure: Enrollment: 22 patients (15 HIV positive and 7 HIV negative) median age 52 years (range 32-74) were studied. All patients with HIV were receiving antiretroviral therapy (ART) for median 48 months (7-227), HIV VL<50 copies/mL (all), and CD4 count 378 cells/μl (135-752). […] All were evaluable for response.
as §1
Kaposi sarcoma responses: KS responses were evaluated every cycle and categorized as complete (CR), partial (PR), stable disease (SD), or progressive disease (PD) using modified ACTG criteria. To be evaluable for response, patients completed at least two cycles of therapy. Evaluations included lesion counts, measurement of the sum product of the diameters of five indicator lesions, assessment of nodularity, and measurement of limb circumference if tumor-associated edema was present. PR was considered as at least 50% decrease in number of lesions and/or sum product of the diameters of marker lesions and/or nodularity of lesions, and no new lesions in previously uninvolved areas nor criteria for PD. CR was considered as clinical resolution of all lesions and tumor-associated phenomenon, with biopsy confirmation. Both CR and PR had to be sustained for 4 weeks. Best response was evaluated for each patient.
Complete and partial responses are objective tumor responses by modified AIDS Clinical Trial Group Criteria for KS. Complete response also requires pathological confirmation. Individual responses are shown in FIG. 1A (maximal change in number of nodular lesions) and FIG. 1B (maximal change in total number of lesions). No decrease in quality of life during therapy was reported by patient. Improved satisfaction with appearance was reported by patients. […] This includes objective responses in patients previously refractory to standard cytotoxic therapy and in patients who have previously received other immunomodulatory drugs (e.g., thalidomide, lenalidomide, or both).
HIV infected and uninfected cohorts were evaluated separately and combined. The unacceptable ORR for further development was defined as 10% and a desirable (targeted) ORR as 40%. Up to 10 HIV negative patients were to be enrolled, with the goal of […]; that would have 83.3% probability of occurring if the true ORR were 40% and 7.0% probability of occurring if the true ORR were 10%. Up to 15 HIV positive patients were to be enrolled, with the goal of […]; that would have 90.9% probability of occurring if the true ORR were 40% and 5.6% probability of occurring if the true ORR were 10%.

IRF4 = experiment: Western blot of IRF4 in PEL cell lines; format: cell-based; conditions: BC-3, BCBL-1, JSC-1
From the text: In addition, the effect of the immunomodulatory drugs on KSHV down-regulation of MHC-1 during lytic activation was investigated by FACS analysis after pretreating the cells with Immunomodulatory drugs prior to lytic activation with butyrate.
Cell Culture: The PEL lines JSC-1 (John Hopkins University, Baltimore, Md.), dually infected with Epstein-Barr virus (EBV) and HHV-8, and BC-3 (ATCC, Rockville, Md.) and BCBL-1(National Institute of Health AIDS Research and Reagent Program, Rockville, Md.), harboring KSHV only, and CA-46, an uninfected cancerous B-cell line, were grown in RPMI 1640 medium (Invitrogen, Carlsbad, Calif.) supplemented with 15% fetal-bovine serum (FBS) (Thermo Scientific, Rockford, Ill.) and Pen/Strep glutamine at 37° C. with 5% CO2.
Western Blotting: At the end of an incubation period, cells were lysed and nuclear/cytoplasmic extracts were prepared using the NE-PER nuclear extraction kit (Pierce). Samples were subjected to SDS-PAGE (4 to 12% NuPAGE Tris-Bis) (Invitrogen) and transferred to nitrocellulose. The membrane was blocked with 5% w/v nonfat dry milk in 1×TBST (10 mM Tris-Hcl, […], 150 mM NaCl, and 0.05% Tween 20) overnight at 4° C. […]

[2] = Combined, 22 assessable, patients (%), 5 mg per day orally 21 of 28 days
[3] = HIV negative, 7 assessable, patients (%)
[4] = HIV positive, 15 assessable, patients (%)

Nc1cccc2c1C(=O)N(C1CCC(=O)NC1=O)C2=O (stereo not drawn) [pomalidomide, 4-amino-2-(2,6-dioxopiperidin-3-yl)isoindoline-1,3-dione]
KSHV VL (copies/PBMC) Change to End Therapy (Med, range) ([1]; median change from baseline): 0 copies/PBMC | KSHV VL (copies/PBMC) Change to Week 8 (Med, range) ([1]; median change from baseline): 0 copies/PBMC | KSHV VL (copies/PBMC) Change to Week 4 (Med, range) ([1]; median change from baseline 0): 0^† copies/PBMC | subjects whose KSHV VL became detectable from undetectable ([1]; week 4, 8 subjects): 35% | subjects showing an increase in KSHV VL in PBMCs ([1]; week 4, 10 subjects): 45% | KSHV VL ([1]; week 4, not sustained at week 8): transient increase; also recorded: significant increase | response in HIV-uninfected subjects (Kaposi sarcoma; 5 mg for 21 of 28 days): all HIV-uninfected subjects responded | overall response rate (Kaposi sarcoma; 5 mg for 21 of 28 days, symptomatic KS regardless of HIV status): 73% | subjects with edema having evidence of improvement in tumor-associated edema (Kaposi sarcoma; 10 of 17 subjects with edema): 59% | Complete Response (CR) (Kaposi sarcoma; [2]): 4 (18%) | Partial Response (PR) (Kaposi sarcoma; [2]): 12 (55%) | Progressive Disease (PD) (Kaposi sarcoma; [2]): 3 (14%) | Overall Response (CR + PR) (Kaposi sarcoma; Combined, 22 assessable, patients (%), 5 mg per day orally 21 days of 28 day cycles): 16 (73%) | Time to Response (Kaposi sarcoma; Combined, range (4-36)): 4 weeks | Progressive Disease (PD) (Kaposi sarcoma; HIV negative, 7 assessable, patients): 0 | Complete Response (CR) (Kaposi sarcoma; [3]): 1 (14%) | Partial Response (PR) (Kaposi sarcoma; [3]): 6 (86%) | Overall Response (CR + PR) (Kaposi sarcoma; HIV negative, 7 assessable, patients (%), 5 mg per day orally 21 of 28 days): 7 (100%) | Time to Response (Kaposi sarcoma; HIV negative, range (4-36)): 4 weeks | Complete Response (CR) (Kaposi sarcoma; [4]): 3 (20%) | Partial Response (PR) (Kaposi sarcoma; [4]): 6 (40%) | Overall Response (CR + PR) (Kaposi sarcoma; HIV positive, 15 assessable, patients (%), 5 mg per day orally 21 of 28 days): 9 (60%) | Progressive Disease (PD) (Kaposi sarcoma; HIV positive, 15 assessable, patients (%), includes one subject non-adherent to ART and protocol therapy): 3 (20%)* | Time to Response (Kaposi sarcoma; HIV positive, range (4-32)): 8 weeks | KS responses, character (Kaposi sarcoma; including patients refractory to cytotoxic therapy or previously given other immunomodulatory drugs): responses were generally rapid, were linked to improved self reported outcomes, and occurred even in advanced and heavily pretreated KS | subjects in whom limb circumference showed at least a 2 cm reduction with therapy (Kaposi sarcoma; number of subjects, of 17 with edema): 8 | representative response of a left great toe lesion (Kaposi sarcoma; one patient, after 4 weeks, FIG. 10B): complete flattening of the lesion | representative response of a left great toe lesion (Kaposi sarcoma; same patient, 24 weeks, FIG. 10C): complete resolution of the lesion and a complete pathological response | IRF4 expression level (IRF4; 1 μM and 10 μM, FIGS. 4A-4D): downregulated IRF4 in all three PEL lines | IRF4 expression level (IRF4; indicated concentrations for 72 hours, among three tested compounds, FIGS. 3A-3C): most effective in downregulating IRF4
